# System: MCF7 cells
# Test: Anti-proliferation (viability) of MCF7 cells (Table 7, FIG. 2B)
# Assay type: cell-based
# Details: Homo sapiens, MCF7, MCF7 cells, 3-6 days, 10-point serial dilution; read-out: GI IC50 in MCF-7
row,IC50 [nM],SMILES
1,> 100,"CC(=O)c1c(C)c2cnc(Nc3ccc(N4CCC5(CC4)CC(C(=O)NC4CC6(C4)CC(Nc4nc(NC(C)C)ccc4C(=O)Nc4ccc(N(C)C)nn4)C6)C5)cn3)nc2n(C2CCCC2)c1=O (stereo not shown) [CPD-437, 7-(6-((6-acetyl-8-cyclopentyl-5-methyl-7-oxo-7,8-dihydropyrido[2,3-d]pyrimidin-2-yl)amino)pyridin-3-yl)-N-(6-((3-((6-(dimethylamino)pyridazin-3-yl)carbamoyl)-6-(isopropylamino)pyridin-2-yl)amino)spiro[3.3]heptan-2-yl)-7-azaspiro[3.5]nonane-2-carboxamide]"
2,50 to 100,"[2H]C([2H])([2H])Nc1ccc(C(=O)Nc2ccc(N(C)C)nn2)c(NC2CC3(CC(NC(=O)C(C)N4CCN(c5ccc(Nc6ncc7c(C)c(C(C)=O)c(=O)n(C8CCCC8)c7n6)nc5)CC4)C3)C2)n1 (stereo not shown) [CPD-438, 2-((6-(2-(4-(6-((6-acetyl-8-cyclopentyl-5-methyl-7-oxo-7,8-dihydropyrido[2,3-d]pyrimidin-2-yl)amino)pyridin-3-yl)piperazin-1-yl)propanamido)spiro[3.3]heptan-2-yl)amino)-N-(6-(dimethylamino)pyridazin-3-yl)-6-((methyl-d3)amino)nicotinamide]"
3,< 50,"[2H]C([2H])([2H])Nc1ccc(C(=O)Nc2ccc(N(C)C)nn2)c(NC2CC3(CC(NC(=O)C4CC45CCN(c4ccc(Nc6ncc7c(C)c(C(C)=O)c(=O)n(C8CCCC8)c7n6)nc4)CC5)C3)C2)n1 (stereo not shown) [CPD-439, 6-(6-((6-acetyl-8-cyclopentyl-5-methyl-7-oxo-7,8-dihydropyrido[2,3-d]pyrimidin-2-yl)amino)pyridin-3-yl)-N-(6-((3-((6-(dimethylamino)pyridazin-3-yl)carbamoyl)-6-((methyl-d3)amino)pyridin-2-yl)amino)spiro[3.3]heptan-2-yl)-6-azaspiro[2.5]octane-1-carboxamide]"
4,< 50,"[2H]C([2H])([2H])Nc1ccc(C(=O)Nc2ccc(N(C)C)nn2)c(NC2CC3(CC(NC(=O)CN4CCC5(CCN(c6ccc(Nc7ncc8c(C)c(C(C)=O)c(=O)n(C9CCCC9)c8n7)nc6)C5)C4)C3)C2)n1 (stereo not shown) [CPD-449, 2-((6-(2-(7-(6-((6-acetyl-8-cyclopentyl-5-methyl-7-oxo-7,8-dihydropyrido[2,3-d]pyrimidin-2-yl)amino)pyridin-3-yl)-2,7-diazaspiro[4.4]nonan-2-yl)acetamido)spiro[3.3]heptan-2-yl)amino)-N-(6-(dimethylamino)pyridazin-3-yl)-6-((methyl-d3)amino)nicotinamide]"
5,< 50,"[2H]C([2H])([2H])Nc1ccc(C(=O)Nc2ccc(N(C)C)nn2)c(NC2CC(NC(=O)CN3CCC4(CCN(c5ccc(Nc6ncc7c(C)c(C(C)=O)c(=O)n(C8CCCC8)c7n6)nc5)C4)C3)C2)n1 (stereo not shown) [CPD-450, 2-((3-(2-(7-(6-((6-acetyl-8-cyclopentyl-5-methyl-7-oxo-7,8-dihydropyrido[2,3-d]pyrimidin-2-yl)amino)pyridin-3-yl)-2,7-diazaspiro[4.4]nonan-2-yl)acetamido)cyclobutyl)amino)-N-(6-(dimethylamino)pyridazin-3-yl)-6-((methyl-d3)amino)nicotinamide]"

# More lines, now with the values behind:
row,SMILES,IC50 [nM]
1,"CC(=O)c1c(C)c2cnc(Nc3ccc(N4CCN(C(CC(=O)N5CC6(CC(Nc7nc(NC(C)C)ccc7C(=O)Nc7cc(C)n(C)n7)C6)C5)C(F)(F)F)CC4)cn3)nc2n(C2CCCC2)c1=O (stereo not shown) [CPD-433, 2-((2-(3-(4-(6-((6-acetyl-8-cyclopentyl-5-methyl-7-oxo-7,8-dihydropyrido[2,3-d]pyrimidin-2-yl)amino)pyridin-3-yl)piperazin-1-yl)-4,4,4-trifluorobutanoyl)-2-azaspiro[3.3]heptan-6-yl)amino)-N-(1,5-dimethyl-1H-pyrazol-3-yl)-6-(isopropylamino)nicotinamide]",< 50
2,"[2H]C([2H])([2H])Nc1ccc(C(=O)Nc2cc(C)n(C)n2)c(NC2CC3(C2)CN(C(=O)CC(N2CCN(c4ccc(Nc5ncc6c(C)c(C(C)=O)c(=O)n(C7CCCC7)c6n5)nc4)CC2)C(F)(F)F)C3)n1 (stereo not shown) [CPD-434, 2-((2-(3-(4-(6-((6-acetyl-8-cyclopentyl-5-methyl-7-oxo-7,8-dihydropyrido[2,3-d]pyrimidin-2-yl)amino)pyridin-3-yl)piperazin-1-yl)-4,4,4-trifluorobutanoyl)-2-azaspiro[3.3]heptan-6-yl)amino)-N-(1,5-dimethyl-1H-pyrazol-3-yl)-6-((methyl-d3)amino)nicotinamide]",< 50
3,"[2H]C([2H])([2H])Nc1ccc(C(=O)Nc2cn(C)c(C3CC3)n2)c(NC2CC3(C2)CN(C(=O)CC(N2CCN(c4ccc(Nc5ncc6c(C)c(C(C)=O)c(=O)n(C7CCCC7)c6n5)nc4)CC2)C(F)(F)F)C3)n1 (stereo not shown) [CPD-435, 2-((2-(3-(4-(6-((6-acetyl-8-cyclopentyl-5-methyl-7-oxo-7,8-dihydropyrido[2,3-d]pyrimidin-2-yl)amino)pyridin-3-yl)piperazin-1-yl)-4,4,4-trifluorobutanoyl)-2-azaspiro[3.3]heptan-6-yl)amino)-N-(2-cyclopropyl-1-methyl-1H-imidazol-4-yl)-6-((methyl-d3)amino)nicotinamide]",< 50
4,"CC(=O)c1c(C)c2cnc(Nc3ccc(N4CCN(C(CC(=O)N5CC6(CC(Nc7nc(NC(C)C)ccc7C(=O)Nc7cn(C)c(C8CC8)n7)C6)C5)C(F)(F)F)CC4)cn3)nc2n(C2CCCC2)c1=O (stereo not shown) [CPD-436, 2-((2-(3-(4-(6-((6-acetyl-8-cyclopentyl-5-methyl-7-oxo-7,8-dihydropyrido[2,3-d]pyrimidin-2-yl)amino)pyridin-3-yl)piperazin-1-yl)-4,4,4-trifluorobutanoyl)-2-azaspiro[3.3]heptan-6-yl)amino)-N-(2-cyclopropyl-1-methyl-1H-imidazol-4-yl)-6-(isopropylamino)nicotinamide]",< 50
5,"CC(=O)c1c(C)c2cnc(Nc3ccc(N4CCN(CC(=O)NC5CC6(C5)CC(Nc5nc(NC(C)C)ccc5C(=O)Nc5cc7n(n5)CCC7)C6)CC4)cn3)nc2n(C2CCCC2)c1=O (stereo not shown) [CPD-440, 2-((6-(2-(4-(6-((6-acetyl-8-cyclopentyl-5-methyl-7-oxo-7,8-dihydropyrido[2,3-d]pyrimidin-2-yl)amino)pyridin-3-yl)piperazin-1-yl)acetamido)spiro[3.3]heptan-2-yl)amino)-N-(5,6-dihydro-4H-pyrrolo[1,2-b]pyrazol-2-yl)-6-(isopropylamino)nicotinamide]",< 50
6,"[2H]C([2H])([2H])Nc1ccc(C(=O)Nc2ccc(N(C)C)nn2)c(NC2CCN(C(=O)CN3CCC4(CCN(c5ccc(Nc6ncc7c(C)c(C(C)=O)c(=O)n(C8CCCC8)c7n6)nc5)C4)C3)CC2)n1 (stereo not shown) [CPD-441, 2-((1-(2-(7-(6-((6-acetyl-8-cyclopentyl-5-methyl-7-oxo-7,8-dihydropyrido[2,3-d]pyrimidin-2-yl)amino)pyridin-3-yl)-2,7-diazaspiro[4.4]nonan-2-yl)acetyl)piperidin-4-yl)amino)-N-(6-(dimethylamino)pyridazin-3-yl)-6-((methyl-d3)amino)nicotinamide]",< 50
7,"[2H]C([2H])([2H])Nc1ccc(C(=O)Nc2ccc(N(C)C)nn2)c(NC2CN(C(=O)CN3CCC4(CCN(c5ccc(Nc6ncc7c(C)c(C(C)=O)c(=O)n(C8CCCC8)c7n6)nc5)C4)C3)C2)n1 (stereo not shown) [CPD-442, 2-((1-(2-(7-(6-((6-acetyl-8-cyclopentyl-5-methyl-7-oxo-7,8-dihydropyrido[2,3-d]pyrimidin-2-yl)amino)pyridin-3-yl)-2,7-diazaspiro[4.4]nonan-2-yl)acetyl)azetidin-3-yl)amino)-N-(6-(dimethylamino)pyridazin-3-yl)-6-((methyl-d3)amino)nicotinamide]",> 100
8,"[2H]C([2H])([2H])Nc1ccc(C(=O)Nc2cn(C)c(C3CC3)n2)c(NC2CC3(C2)CN(C(=O)CN2CCC4(CCN(c5ccc(Nc6ncc7c(C)c(C(C)=O)c(=O)n(C8CCCC8)c7n6)nc5)C4)C2)C3)n1 (stereo not shown) [CPD-443, 2-((2-(2-(7-(6-((6-acetyl-8-cyclopentyl-5-methyl-7-oxo-7,8-dihydropyrido[2,3-d]pyrimidin-2-yl)amino)pyridin-3-yl)-2,7-diazaspiro[4.4]nonan-2-yl)acetyl)-2-azaspiro[3.3]heptan-6-yl)amino)-N-(2-cyclopropyl-1-methyl-1H-imidazol-4-yl)-6-((methyl-d3)amino)nicotinamide]",< 50
9,"CC(=O)c1c(C)c2cnc(Nc3ccc(N4CCC5(CCN(CC(=O)N6CC7(CC(Nc8nc(NC(C)C)ccc8C(=O)Nc8cn(C)c(C9CC9)n8)C7)C6)C5)C4)cn3)nc2n(C2CCCC2)c1=O (stereo not shown) [CPD-444, 2-((2-(2-(7-(6-((6-acetyl-8-cyclopentyl-5-methyl-7-oxo-7,8-dihydropyrido[2,3-d]pyrimidin-2-yl)amino)pyridin-3-yl)-2,7-diazaspiro[4.4]nonan-2-yl)acetyl)-2-azaspiro[3.3]heptan-6-yl)amino)-N-(2-cyclopropyl-1-methyl-1H-imidazol-4-yl)-6-(isopropylamino)nicotinamide]",< 50
10,"[2H]C([2H])([2H])Nc1ccc(C(=O)Nc2ccc(N(C)C)nn2)c(NC2CC(CNC(=O)CN3CCC4(CCN(c5ccc(Nc6ncc7c(C)c(C(C)=O)c(=O)n(C8CCCC8)c7n6)nc5)C4)C3)C2)n1 (stereo not shown) [CPD-445, 2-((3-((2-(7-(6-((6-acetyl-8-cyclopentyl-5-methyl-7-oxo-7,8-dihydropyrido[2,3-d]pyrimidin-2-yl)amino)pyridin-3-yl)-2,7-diazaspiro[4.4]nonan-2-yl)acetamido)methyl)cyclobutyl)amino)-N-(6-(dimethylamino)pyridazin-3-yl)-6-((methyl-d3)amino)nicotinamide]",< 50
11,"CC(=O)c1c(C)c2cnc(Nc3ccc(N4CCC5(CC4)CC5C(=O)NC4CC5(C4)CC(Nc4nc(NC(C)C)ccc4C(=O)Nc4cc(C)n(C)n4)C5)cn3)nc2n(C2CCCC2)c1=O (stereo not shown) [CPD-451, 6-(6-((6-acetyl-8-cyclopentyl-5-methyl-7-oxo-7,8-dihydropyrido[2,3-d]pyrimidin-2-yl)amino)pyridin-3-yl)-N-(6-((3-((1,5-dimethyl-1H-pyrazol-3-yl)carbamoyl)-6-(isopropylamino)pyridin-2-yl)amino)spiro[3.3]heptan-2-yl)-6-azaspiro[2.5]octane-1-carboxamide]",< 50

# — patent publication US20260297081A1, “COMPOUNDS AND METHODS OF TREATING CANCERS” (Cullgen Inc., priority 2023, published 2026)
